Molecules are shown by their SMILES. Where two headings read alike, the source gives them in different places.

One data set has as its target T1, p38 MAP Kinase a (Homo sapiens, UniProt Q16539).
T1 construct: purchased Upstate (Dundee UK)
Nature of the data set: p38 MAP Kinase activity, radiometric filter-binding assay (Upstate). The format is biochemical. Conditions: IC50 range; read-out: Inhibitor activity versus p38 MAPKa. The protocol: The ability of compounds to inhibit p38 MAP a Kinase activity was measured in an assay performed by Upstate (Dundee UK). In a final reaction volume of 25 μL, p38 MAP Kinase a (5-10 mU) is incubated with 25 mM Tris pH 7.5, 0.002 mMEGTA, 0.33 mg/mL myelin basic protein, 10 mM MgAcetate and [g-33p-ATP] (specific activity approx. 500 cpm/pmol, concentration as required). The reaction is initiated by the addition of the MgATP mix. After incubation for 40 minutes at room temperature, the reaction is stopped by the addition of 5 μL of a 3% phosphoric acid solution. 10 μL of the reaction is then spotted onto a P30 filtermat and washed three times for 5 minutes in 75 mM phosphoric acid and once in methanol prior to drying and scintillation counting.
Duplicate data points are generated from a 1/3 log dilution series of a stock solution in DMSO. Nine dilutions steps are made from a top concentration of 10 μM and a ‘no compound’ blank is included. The standard radiometric filter-binding assay is performed at an ATP concentration at, or close to, the Km. Data from scintillation counts are collected and subjected to free-fit analysis by Prism software. From the curve generated, the concentration giving 50% inhibition is determined and reported.

Data set [1] relates to human whole blood TNFα release. The data set can be described thus: LPS-stimulation of human whole blood, TNF-α release (ELISA). The format is cell-based. Conditions: LPS-stimulated human whole blood, IC50 range; read-out: Inhibitor activity versus human whole blood TNFα release. The protocol: Whole blood was taken by venous puncture using heparinised vacutainers (Becton Dickinson) and diluted in an equal volume of RPMI1640 tissue culture media (Sigma). 100 μl was plated in V-bottomed 96 well tissue culture treated plates. 2 hours after the addition of the inhibitor in 100 μl of RPMI1640 media, the blood was stimulated with LPS (E coli strain 005:B5, Sigma) at a final concentration of 100 ng/ml and incubated at 37° C. in 5% CO2 for 6 hours. TNF-α levels were measured from cell-free supernatants by sandwich ELISA (R&D Systems #QTA00B).
In general terms: An ELISA detects its analyte on a solid surface through an enzyme-linked reagent.

The test system of another data set is THP-1 TNFα release. The data set can be described thus: LPS-stimulation of THP-1 cells, TNF-α release (ELISA). The format is cell-based. The conditions noted are these: Homo sapiens; LPS-stimulated THP-1 cells, IC50 range; read-out: Inhibitor activity versus THP-1 TNFα release. The protocol: THP-1 cells were plated in 100 μl at a density of 4×10^4 cells/well in V-bottomed 96 well tissue culture treated plates and incubated at 37° C. in 5% CO2 for 16 hours. 2 hours after the addition of the inhibitor in 100 μl of tissue culture media, the cells were stimulated with LPS (E. coli strain 005:B5, Sigma) at a final concentration of 1 μg/ml and incubated at 37° C. in 5% CO2 for 6 hours. TNF-α levels were measured from cell-free supernatants by sandwich ELISA (R&D Systems #QTA00B).

Another data set deals with U937 cells. Nature of the data set: Cell accumulation of the acid in U937 cells. The class given is cell-based. Conditions: U937 monocytic versus non-monocytic cell line.
Data set [2] concerns phosphorylation of MAPKAP-2 in HUT 78 cells. The data set can be described thus: p38 MAP kinase cellular assay: inhibition of phosphorylation of MAPKAP-2 in HUT 78 cells. The format is cell-based. Conditions: for Ratio IC50s in HUT 78 to U937 cells: HUT 78 IC50 / U937 IC50; for IC50: Homo sapiens, HuT78, Table 3, HUT 78 non-monocytic cell line. The protocol:
(§1) U937 or HUT78 cells were plated in RPMI 1640, and were incubated at 37° C., 5% CO2 for 18 hours. 10 mM stocks of compounds were diluted media/0.1% DMSO to give a log or semi-log dilution series. The wells for ‘no treatment’ and ‘anisomycin’ were treated with 0.1% DMSO only. The cells were incubated at 37° C., 5% CO2 for a further 4 hours. Anisomycin was added to all wells except ‘no treatment’ at a final concentration of 10 μM. The cells were incubated at 37° C., 5% CO2 for 30 minutes before harvest. Plates were stood on ice whilst harvesting, and all following steps were carried out at 4° C. The cells were pelleted at 1000 rpm for 10 minutes at 4° C., the media aspirated, and the pellet washed with cold PBS. The pellets were lysed in 120 μl of SDS lysis buffer (62.5 mM Tris, pH 6.8, 2% SDS, 10% glycerol, 50 mM DTT, with protease inhibitors and phosphatase inhibitors added according to the manufacturer's recommendations). After 30 minutes on ice, the samples were sonicated for 5 seconds before centrifugation at 13,000 rpm 4° C. for 10 minutes to remove cell debris. 10 μl of the resulting gel samples were loaded per lane on NOVEX 4-12% Bis-Tris MOPS gels. Membranes from western transfer of gels were blotted with anti-phospho MAPKAP2, anti-phospho HSP27 and anti GAPDH according to the manufacturer's instructions. Signal was visualised using HRP-linked anti-rabbit or anti-mouse antibodies, ECL reagent and ECL film. IC50 values for the various compounds were visualised from the resulting photographic images, using both band-shift and signal intensity.

In data set [3] the test system is phosphorylation of MAPKAP-2 in U937 cells. The data set can be described thus: p38 MAP kinase cellular assay: inhibition of phosphorylation of MAPKAP-2 in U937 cells. The conditions noted are these: for IC50: Homo sapiens, U-937; for Ratio cell IC50s to enzyme IC50: U937 cell IC50 / P38 enzyme IC50. The format is cell-based. The protocol:
as §1

The mark [4] stands for this setting: Table 2, U937 cells, read-out: Inhibition of phosphorylation of MAPKAP-2 in U937 cells (IC50).
Where [5] appears, read: Table 3, U937 monocyte cell line, read-out: Inhibition of phosphorylation of MAPKAP-2 in U937 cells (IC50, nM) (monocyte cell line).

T1 sequence (Q16539 whole entry): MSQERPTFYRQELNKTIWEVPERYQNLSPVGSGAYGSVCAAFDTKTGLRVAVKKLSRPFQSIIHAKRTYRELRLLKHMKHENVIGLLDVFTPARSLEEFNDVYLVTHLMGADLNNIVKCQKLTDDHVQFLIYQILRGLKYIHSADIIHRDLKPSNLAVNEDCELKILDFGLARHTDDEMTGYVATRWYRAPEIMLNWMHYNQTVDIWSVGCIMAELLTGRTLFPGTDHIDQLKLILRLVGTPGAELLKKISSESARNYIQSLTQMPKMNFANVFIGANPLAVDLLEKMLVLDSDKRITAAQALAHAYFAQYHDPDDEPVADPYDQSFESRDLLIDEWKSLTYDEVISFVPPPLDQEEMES

For `CC(C)(NCCc1ccc(-n2c(N)c(C(=O)c3ccc(F)cc3F)ccc2=O)cc1)C(=O)O` [Example 11, N-(2-{4-[6-amino-5-(2,4-difluorobenzoyl)-2-oxopyridin-1(2H)yl]phenyl}ethyl)-2-methylalanine], the IC50 on p38 MAP Kinase a was below 100 nM.

On to `CC[C@](C)(NCCc1ccc(-n2c(N)c(C(=O)c3ccc(F)cc3F)ccc2=O)cc1)C(=O)O` [Example 14, N-(2-{4-[6-amino-5-(2,4-difluorobenzoyl)-2-oxopyridin-1(2H)-yl]phenyl}ethyl)-L-isovaline], for which the IC50 on p38 MAP Kinase a is below 100 nM.

On to `CC[C@](C)(NCCc1ccc(-n2c(N)c(C(=O)c3ccc(F)cc3F)ccc2=O)cc1)C(=O)OC1CCCC1` [Example 5, Cyclopentyl N-(2-{4-[6-amino-5-(2,4-difluorobenzoyl)-2-oxopyridin-1(2H)-yl]phenyl}ethyl)-L-isovalinate], for which the IC50 is 100 to 1000 nM on p38 MAP Kinase a, above 1000 nM in data set [1] and below 100 nM in the data set on THP-1 TNFα release.

On to `CC(C)(NCCc1ccc(-n2c(N)c(C(=O)c3ccc(F)cc3F)ccc2=O)cc1)C(=O)OC1CCCC1` [Example 1, Cyclopentyl N-(2-{4-[6-amino-5-(2,4-difluorobenzoyl)-2-oxopyridin-1(2H)-yl]phenyl}ethyl)-2-methylalaninate], for which the “Accumulation of the acid in cells (in words)” value with U937 cells is on record as “only accumulates in the monocytic cell line”. Further, in data set [2], the “Ratio IC50s in HUT 78 to U937 cells” value was found to be 100. Besides, the IC50 is 1000 nM in data set [2]; below 100 nM on p38 MAP Kinase a; 100 to 1000 nM in data set [1]; 10 nM in data set [3] (setting [4]); 10 nM in data set [3] (setting [5]); below 100 nM in the data set with THP-1 TNFα release. Further, the “Ratio cell IC50s to enzyme IC50” value in data set [3] was 0.2. The “Potency in cells relative to the parent compound lacking the esterase motif” value in data set [3] (U937 cells) came out at 30 times.

Regarding `CC(C)(NCCc1ccc(-n2c(N)c(C(=O)c3ccc(F)cc3F)ccc2=O)cc1)C(=O)OC1Cc2ccccc2C1` [Example 7, 2,3-dihydro-1H-inden-2-yl N-(2-{4-[6-amino-5-(2,4-difluorobenzoyl)-2-oxopyridin-1(2H)-yl]phenyl}ethyl)-2-methylalaninate], the results for the IC50 (on p38 MAP Kinase a; in data set [1]; in the data set with THP-1 TNFα release) were 100 to 1000 nM, above 1000 nM and below 100 nM, respectively.

Take `Nc1c(C(=O)c2ccc(F)cc2F)ccc(=O)n1-c1ccccc1` [Parent Compound I, reference compound]: the “Ratio IC50s in HUT 78 to U937 cells” value in data set [2] was 1.5; in data set [2] (listed as compound I) it was “equipotent”. Also, the IC50 is 450 nM in data set [2], 300 nM in data set [3] (setting [4]) and 300 nM in data set [3] (setting [5]). Besides, in data set [3], the “Ratio cell IC50s to enzyme IC50” value is recorded as 6.

Regarding `CC[C@](C)(NCCc1ccc(-n2c(N)c(C(=O)c3ccc(F)cc3F)ccc2=O)cc1)C(=O)OC(C)(C)C` [Example 6, tert-butyl N-(2-{4-[6-amino-5-(2,4-difluorobenzoyl)-2-oxopyridin-1(2H)-yl]phenyl}ethyl)-L-isovalinate], the IC50 at p38 MAP Kinase a and with THP-1 TNFα release was 100 to 1000 nM in each case.

With `CC(C)(NCCCOc1cc(F)c(-n2c(N)c(C(=O)c3ccc(F)cc3F)ccc2=O)c(F)c1)C(=O)OC1CCCC1` [Example 9, Cyclopentyl N-(3-{4-[6-amino-5-(2,4-difluorobenzoyl)-2-oxopyridin-1(2H)-yl]-3,5-difluorophenoxy}propyl)-2-methylalaninate], the IC50 is below 100 nM on p38 MAP Kinase a, 100 to 1000 nM in data set [1] and below 100 nM in the data set on THP-1 TNFα release.

Consider `CC(C)(NC(=O)Cc1ccc(-n2c(N)c(C(=O)c3ccc(F)cc3F)ccc2=O)cc1)C(=O)O` [Example 13], for which, on p38 MAP Kinase a, the IC50 lay within 100 to 1000 nM.

`CC(C)(NCCc1cc(F)c(-n2c(N)c(C(=O)c3ccc(F)cc3F)ccc2=O)c(F)c1)C(=O)O` [Example 12, N-(2-{4-[6-amino-5-(2,4-difluorobenzoyl)-2-oxopyridin-1(2H)-yl]-3,5-difluorophenyl}ethyl)-2-methylalanine]: on p38 MAP Kinase a, the IC50 was below 100 nM.

For the compound `CC(C)(NCCc1cc(F)c(-n2c(N)c(C(=O)c3ccc(F)cc3F)ccc2=O)c(F)c1)C(=O)OC1CCCC1` [Example 2, Cyclopentyl N-(2-{4-[6-amino-5-(2,4-difluorobenzoyl)-2-oxopyridin-1(2H)-yl]-3,5-difluorophenyl}ethyl)-2-methylalaninate], the IC50 (on p38 MAP Kinase a; in data set [1]; in the data set with THP-1 TNFα release) was below 100 nM in each case.

Turning to `CC(C)(NC(=O)Cc1ccc(-n2c(N)c(C(=O)c3ccc(F)cc3F)ccc2=O)cc1)C(=O)OC1CCCC1` [Example 3, Cyclopentyl N-({4-[6-amino-5-(2,4-difluorobenzoyl)-2-oxopyridin-1(2H)-yl]phenyl}acetyl)-2-methylalaninate], the IC50 was below 100 nM at p38 MAP Kinase a, above 1000 nM in data set [1] and 100 to 1000 nM in the data set with THP-1 TNFα release.

For `Nc1c(C(=O)c2ccc(F)cc2F)ccc(=O)n1-c1ccc(CCNC2(C(=O)OC3CCCC3)CCCC2)cc1` [Example 4, Cyclopentyl 1-[(2-{4-[6-amino-5-(2,4-difluorobenzoyl)-2-oxopyridin-1(2H)-yl]phenyl}ethyl)amino]cyclopentanecarboxylate], the IC50 is below 100 nM on p38 MAP Kinase a, above 1000 nM in data set [1] and below 100 nM with THP-1 TNFα release.

Consider `CC(C)(NCCCOc1cc(F)c(-n2c(N)c(C(=O)c3ccc(F)cc3F)ccc2=O)c(F)c1)C(=O)O` [Example 16, N-(3-{4-[6-amino-5-(2,4-difluorobenzoyl)-2-oxopyridin-1(2H)-yl]-3,5-difluorophenoxy}propyl)-2-methylalanine], for which, at p38 MAP Kinase a, the IC50 is below 100 nM.

On to `CC(C)(NCCc1ccc(-n2c(N)c(C(=O)c3ccc(F)cc3F)ccc2=O)cc1)C(=O)OC1CC2CCC1C2` (centres unmarked) [Example 8, bicyclo[2.2.1]hept-2-yl N-(2-{4-[6-amino-5-(2,4-difluorobenzoyl)-2-oxopyridin-1(2H)-yl]phenyl}ethyl)-2-methylalaninate], for which the IC50 in data set [1] is above 1000 nM; in the data set on THP-1 TNFα release, below 100 nM.

Regarding `Nc1c(C(=O)c2ccc(F)cc2F)ccc(=O)n1-c1ccc(CCNC2(C(=O)O)CCCC2)cc1` [Example 15, 1-[(2-{4-[6-amino-5-(2,4-difluorobenzoyl)-2-oxopyridin-1(2H)-yl]phenyl}ethyl)amino]cyclopentanecarboxylic acid], on p38 MAP Kinase a, the IC50 was 100 to 1000 nM.

Turning to `CC(C)(C)OC(=O)C(C)(C)NCCCOc1cc(F)c(-n2c(N)c(C(=O)c3ccc(F)cc3F)ccc2=O)c(F)c1` [Example 10, tert-butyl N-(3-{4-[6-amino-5-(2,4-difluorobenzoyl)-2-oxopyridin-1(2H)-yl]-3,5-difluorophenoxy}propyl)-2-methylalaninate], the IC50 was below 100 nM on p38 MAP Kinase a, above 1000 nM in data set [1] and below 100 nM in the data set with THP-1 TNFα release.

The record behind these values is patent publication US8778953B2, “Inhibitors of P38 map kinase” (Chroma Therapeutics Ltd., priority 2008, dated 2014).
